From ChEMBL document CHEMBL3046642, “17-Oximino-5-androsten-3-yl esters: synthesis, antiproliferative activity, acute toxicity, and effect on serum androgen level” (Med Chem Res, 2011)
pIC50: −log10 of the molar value. Activity calls are given as the source filed them. The rule behind the calls is not given here.

Tests used:
[1] = test system: DU-145; experiment: Growth inhibition of Homo sapiens (human) DU145 cells at 0.01 ug/ml after 48 hr by MTT assay; format: functional; details: for inhibition of growth at 0.01 µg/mL: DU-145, 48 h, read-out: GI
[2] = test system: DU-145; experiment: Growth inhibition of Homo sapiens (human) DU145 cells at 5 ug/ml after 48 hr by MTT assay; format: functional; details: for inhibition of growth at 5 µg/mL: DU-145, 48 h, read-out: GI
[3] = test system: DU-145; experiment: Growth inhibition of Homo sapiens (human) DU145 cells at 0.5 ug/ml after 48 hr by MTT assay; format: functional; details: for inhibition of growth at 0.5 µg/mL: DU-145, 48 h, read-out: GI
[4] = test system: DU-145; experiment: Growth inhibition of Homo sapiens (human) DU145 cells at 1 ug/ml after 48 hr by MTT assay; format: functional; details: for inhibition of growth at 1 µg/mL: DU-145, 48 h, read-out: GI
[5] = test system: DU-145; experiment: Growth inhibition of Homo sapiens (human) DU145 cells at 2 ug/ml after 48 hr by MTT assay; format: functional; details: for inhibition of growth at 2 µg/mL: DU-145, 48 h, read-out: GI
[6] = test system: Rattus norvegicus; experiment: Inhibition of 5alpha-reductase in Rattus norvegicus Sprague-Dawley (rat) assessed as increase in serum testosterone at 40 mg/kg, ip after 6 hr by ELISA; format: functional, organism-based; design: dose 40 mg/kg
[7] = test system: DU-145; experiment: Cytotoxicity against Homo sapiens (human) DU145 cells after 48 hr by MTT assay; format: functional, cell-based; details: for pIC50: Homo sapiens, DU-145, 48 h, read-out: IC50
[8] = Cytotoxicity against Mus musculus Balb/c (mouse) macrophages after 24 hr by MTT assay; format: cell-based, Macrophage; details: read-out: LC50

Compound	growth inhibition (GI) [1]	growth inhibition (GI) [2]	growth inhibition (GI) [3]	growth inhibition (GI) [4]	growth inhibition (GI) [5]	inhibition [6]	IC50 ([7]; du-145)	inhibition of growth at 5 µg/mL [2]	pIC50 [7]	CC50 at 24 h [8]	inhibition of growth at 0.01 µg/mL [1]	inhibition of growth at 0.5 µg/mL [3]	inhibition of growth at 1 µg/mL [4]	inhibition of growth at 2 µg/mL [5]
C[C@]12CC[C@H](O)CC1=CC[C@@H]1[C@@H]2CC[C@]2(C)/C(=N/O)CC[C@@H]12	inactive	inactive	inactive	inactive	inactive	Active	Not Active							
C[C@]12CC[C@H](OC(=O)c3ccc(Cl)cc3)CC1=CC[C@@H]1[C@@H]2CC[C@]2(C)/C(=N/O)CC[C@@H]12						Active		84.5%	5.47	24 µM				
C[C@]12CC[C@H](OC(=O)c3ccc(O)cc3)CC1=CC[C@@H]1[C@@H]2CC[C@]2(C)/C(=N/O)CC[C@@H]12						inactive		91.5%	5.54	22 µM				
C[C@]12CC[C@H](OC(=O)CCl)CC1=CC[C@@H]1[C@@H]2CC[C@]2(C)/C(=N/O)CC[C@@H]12						Active		59.2%	5.32	28 µM	53%	55%	56%	56%
C[C@]12CC[C@H](OC(=O)c3ccc([N+](=O)[O-])cc3)CC1=CC[C@@H]1[C@@H]2CC[C@]2(C)/C(=N/O)CC[C@@H]12						Active		81.5%	5.51	19.5 µM				
C[C@]12CC[C@H](OC(=O)COc3ccccc3)CC1=CC[C@@H]1[C@@H]2CC[C@]2(C)/C(=N/O)CC[C@@H]12						Active			5.20	89 µM				
Cc1ccc(C(=O)O[C@H]2CC[C@@]3(C)C(=CC[C@@H]4[C@@H]3CC[C@]3(C)/C(=N/O)CC[C@@H]43)C2)cc1						Active		92.9%	5.64	22 µM				
C[C@]12CC[C@H](OC(=O)c3ccc(N)cc3)CC1=CC[C@@H]1[C@@H]2CC[C@]2(C)/C(=N/O)CC[C@@H]12						Active		91%	5.43	29.4 µM				
CC(C)(C)NC(=O)[C@H]1CC[C@H]2[C@@H]3CC[C@H]4NC(=O)C=C[C@]4(C)[C@H]3CC[C@]12C [FINASTERIDE]						Active		78.5%		28.2 µM	5%			36%
C[C@]12CC[C@H](OC(=O)c3ccccc3)CC1=CC[C@@H]1[C@@H]2CC[C@]2(C)/C(=N/O)CC[C@@H]12						Active		91.1%	5.42	89.4 µM				
COc1ccc(C(=O)O[C@H]2CC[C@@]3(C)C(=CC[C@@H]4[C@@H]3CC[C@]3(C)/C(=N/O)CC[C@@H]43)C2)cc1						inactive		69.5%	5.27	14 µM	30.7%	51.4%	59.2%	65.6%
C[C@]12CC[C@H](OC(=O)Cc3ccccc3)CC1=CC[C@@H]1[C@@H]2CC[C@]2(C)/C(=N/O)CC[C@@H]12	inactive	inactive	inactive	inactive	inactive	Active			5.19	11.8 µM				
